From publication PMC4515429, “Anti-Biofilm and Immunomodulatory Activities of Peptides That Inhibit Biofilms Formed by Pathogens Isolated from Cystic Fibrosis Patients” (Antibiotics, 2014)
“And” between values parts separate entries of the source, which are not always exact repeats. Identical values can stand only once. Where no end group is shown, it is not given here.

Legend:
[1] = test system: P. aeruginosa C2773 (Classic); settings: planktonic cells; broth microdilution, BHI, 5 × 10^5 CFU/mL, 37 °C, 18 h; performed at least three times
Procedure: (§1) In addition to the wild type lab isolates Pseudomonas aeruginosa strains PAO1 and PA14, a variety of cystic fibrosis clinical isolates of P. aeruginosa and Burkholderia cepacia complex strains were utilized (Table 1). Planktonic cells from each of the P. aeruginosa and B. cepacia strains were grown in BM2 glucose or cation-adjusted Mueller-Hinton. The minimal inhibitory concentration (MIC) for peptides in brain-heart infusion (BHI) was assessed by the broth microdilution method with minor modifications for cationic peptides. […] MIC assays were performed in sterile 96-well polypropylene microtiter plates. […] The plates were incubated at 37 °C for 18 h.

P. aeruginosa PA14 [2] = settings: planktonic cells; broth microdilution, BHI, 5 × 10^5 CFU/mL, 37 °C, 18 h; performed at least three times
Procedure: as §1

[3] = test system: P. aeruginosa 1172 (Classic); settings: planktonic cells; broth microdilution, BHI, 5 × 10^5 CFU/mL, 37 °C, 18 h; performed at least three times
Procedure: as §1

[4] = test system: P. aeruginosa C4276 (Classic); settings: planktonic cells; broth microdilution, BHI, 5 × 10^5 CFU/mL, 37 °C, 18 h; performed at least three times
Procedure: as §1

[5] = test system: P. aeruginosa 2631 (Classic); settings: planktonic cells; broth microdilution, BHI, 5 × 10^5 CFU/mL, 37 °C, 18 h; performed at least three times
Procedure: as §1

B. stabilis C6061 (IV) [6] = settings: planktonic cells; broth microdilution, BHI, 5 × 10^5 CFU/mL, 37 °C, 18 h; performed at least three times
Procedure: as §1

[7] = test system: B. cenocepacia CEP509 (IIIb); settings: planktonic cells; broth microdilution, BHI, 5 × 10^5 CFU/mL, 37 °C, 18 h; performed at least three times
Procedure: as §1

[8] = test system: P. aeruginosa 3195 (Classic); settings: planktonic cells; broth microdilution, BHI, 5 × 10^5 CFU/mL, 37 °C, 18 h; performed at least three times
Procedure: as §1

P. aeruginosa PA01 [9] = settings: planktonic cells; broth microdilution, BHI, 5 × 10^5 CFU/mL, 37 °C, 18 h; performed at least three times
Procedure: as §1

[10] = test system: B. cenocepacia CEP0055 (IIIb); settings: planktonic cells; broth microdilution, BHI, 5 × 10^5 CFU/mL, 37 °C, 18 h; performed at least three times
Procedure: as §1

[11] = test system: P. aeruginosa 3330 (Classic); settings: planktonic cells; broth microdilution, BHI, 5 × 10^5 CFU/mL, 37 °C, 18 h; performed at least three times
Procedure: as §1

[12] = test system: P. aeruginosa 4608 (Mucoid); settings: planktonic cells; broth microdilution, BHI, 5 × 10^5 CFU/mL, 37 °C, 18 h; performed at least three times
Procedure: as §1

[13] = test system: P. aeruginosa C4278 (Mucoid); settings: planktonic cells; broth microdilution, BHI, 5 × 10^5 CFU/mL, 37 °C, 18 h; performed at least three times
Procedure: as §1

B. dolosa CEP0021 (VI) [14] = settings: planktonic cells; broth microdilution, BHI, 5 × 10^5 CFU/mL, 37 °C, 18 h; performed at least three times
Procedure: as §1

[15] = test system: B. multivorans D2661 (Genomovar II); settings: planktonic cells; broth microdilution, BHI, 5 × 10^5 CFU/mL, 37 °C, 18 h; performed at least three times
Procedure: as §1

[16] = test system: B. cenocepacia C5424 (IIIa); settings: planktonic cells; broth microdilution, BHI, 5 × 10^5 CFU/mL, 37 °C, 18 h; performed at least three times
Procedure: as §1

[17] = test system: B. cenocepacia 4813 (IIIa); settings: planktonic cells; broth microdilution, BHI, 5 × 10^5 CFU/mL, 37 °C, 18 h; performed at least three times
Procedure: as §1

[18] = test system: P. aeruginosa 4020 (Classic); settings: planktonic cells; broth microdilution, BHI, 5 × 10^5 CFU/mL, 37 °C, 18 h; performed at least three times
Procedure: as §1

[19] = test system: P. aeruginosa 2955 (Dwarf); settings: planktonic cells; broth microdilution, BHI, 5 × 10^5 CFU/mL, 37 °C, 18 h; performed at least three times
Procedure: as §1

[20] = test system: P. aeruginosa 7633 (Entire); settings: planktonic cells; broth microdilution, BHI, 5 × 10^5 CFU/mL, 37 °C, 18 h; performed at least three times
Procedure: as §1

[21] = test system: P. aeruginosa 7632 (Classic); settings: planktonic cells; broth microdilution, BHI, 5 × 10^5 CFU/mL, 37 °C, 18 h; performed at least three times
Procedure: as §1

[22] = test system: B. ambifaria CEP0996 (VII); settings: planktonic cells; broth microdilution, BHI, 5 × 10^5 CFU/mL, 37 °C, 18 h; performed at least three times
Procedure: as §1

[23] = test system: P. aeruginosa 2639 (Mucoid); settings: planktonic cells; broth microdilution, BHI, 5 × 10^5 CFU/mL, 37 °C, 18 h; performed at least three times
Procedure: as §1

P. aeruginosa PA14 [24] = settings: polypropylene 96-well plate, BM2 glucose, 22 h, 37 °C, crystal violet, absorbance 595, at least two independent experiments
Procedure: (§2) To assess the biofilm-forming ability of the different clinical isolates, dilutions (1/100) of overnight cultures were incubated in 96-well polypropylene plates using BM2 glucose medium, as previously described.
(§3) Biofilm formation was initially analyzed using a static abiotic solid surface assay as described elsewhere. Dilutions (1/100) of overnight cultures were incubated in BM2 glucose medium (62 mM potassium phosphate buffer (pH 7), 7 mM (NH4)2SO4, 2 mM MgSO4, 10 μM FeSO4, 0.4% (wt/vol) glucose, 0.5% (wt/vol) Casamino Acids) in polypropylene microtiter plates (Fisher Scientific, Waltham, MA, USA) in the presence of the different peptides for 22 h at 37 °C. Planktonic cells were removed and biofilm cells adhering to the side of the tubes were stained with crystal violet, extracted into ethanol, and the optical density at 595 nm (OD595) measured using a microtiter plate reader (Bio-Tek Instruments Inc., Winooski, VT, USA). Peptides were added at time zero (prior to adding the diluted, overnight cultures) at various concentrations, and the decrease in biofilm formation was recorded at 22 h for P. aeruginosa, Burkholderia and Methicillin-resistant Staphylococcus aureus isolates.

[25] = test system: P. aeruginosa 1172 (Classic); settings: polypropylene 96-well plate, BM2 glucose, 22 h, 37 °C, crystal violet, absorbance 595, at least two independent experiments
Procedure: as §2, §3

[26] = test system: P. aeruginosa 2631 (Classic); settings: polypropylene 96-well plate, BM2 glucose, 22 h, 37 °C, crystal violet, absorbance 595, at least two independent experiments
Procedure: as §2, §3

B. stabilis C6061 (IV) [27] = settings: polypropylene 96-well plate, BM2 glucose, 22 h, 37 °C, crystal violet, absorbance 595, at least two independent experiments
Procedure: as §2, §3

[28] = test system: B. cenocepacia CEP509 (IIIb); settings: polypropylene 96-well plate, BM2 glucose, 22 h, 37 °C, crystal violet, absorbance 595, at least two independent experiments
Procedure: as §2, §3

[29] = test system: P. aeruginosa 3195 (Classic); settings: polypropylene 96-well plate, BM2 glucose, 22 h, 37 °C, crystal violet, absorbance 595, at least two independent experiments
Procedure: as §2, §3

P. aeruginosa PA01 [30] = settings: polypropylene 96-well plate, BM2 glucose, 22 h, 37 °C, crystal violet, absorbance 595, at least two independent experiments
Procedure: as §2, §3

[31] = test system: B. cenocepacia CEP0055 (IIIb); settings: polypropylene 96-well plate, BM2 glucose, 22 h, 37 °C, crystal violet, absorbance 595, at least two independent experiments
Procedure: as §2, §3

[32] = test system: P. aeruginosa 3330 (Classic); settings: polypropylene 96-well plate, BM2 glucose, 22 h, 37 °C, crystal violet, absorbance 595, at least two independent experiments
Procedure: as §2, §3

B. dolosa CEP0021 (VI) [33] = settings: polypropylene 96-well plate, BM2 glucose, 22 h, 37 °C, crystal violet, absorbance 595, at least two independent experiments
Procedure: as §2, §3

[34] = test system: B. multivorans D2661 (Genomovar II); settings: polypropylene 96-well plate, BM2 glucose, 22 h, 37 °C, crystal violet, absorbance 595, at least two independent experiments
Procedure: as §2, §3

[35] = test system: B. cenocepacia C5424 (IIIa); settings: polypropylene 96-well plate, BM2 glucose, 22 h, 37 °C, crystal violet, absorbance 595, at least two independent experiments
Procedure: as §2, §3

[36] = test system: B. cenocepacia 4813 (IIIa); settings: polypropylene 96-well plate, BM2 glucose, 22 h, 37 °C, crystal violet, absorbance 595, at least two independent experiments
Procedure: as §2, §3

[37] = test system: P. aeruginosa 2955 (Dwarf); settings: polypropylene 96-well plate, BM2 glucose, 22 h, 37 °C, crystal violet, absorbance 595, at least two independent experiments
Procedure: as §2, §3

[38] = test system: P. aeruginosa 7633 (Entire); settings: polypropylene 96-well plate, BM2 glucose, 22 h, 37 °C, crystal violet, absorbance 595, at least two independent experiments
Procedure: as §2, §3

[39] = test system: P. aeruginosa 7632 (Classic); settings: polypropylene 96-well plate, BM2 glucose, 22 h, 37 °C, crystal violet, absorbance 595, at least two independent experiments
Procedure: as §2, §3

[40] = test system: B. ambifaria CEP0996 (VII); settings: polypropylene 96-well plate, BM2 glucose, 22 h, 37 °C, crystal violet, absorbance 595, at least two independent experiments
Procedure: as §2, §3

[41] = test system: P. aeruginosa 2639 (Mucoid); settings: polypropylene 96-well plate, BM2 glucose, 22 h, 37 °C, crystal violet, absorbance 595, at least two independent experiments
Procedure: as §2, §3

Work on VRLIVAVRIWRR-NH2 [Peptide 1018] yielded an MIC [1] of 16 µg/mL, an MIC (P. aeruginosa PA14 [2]) of 16 µg/mL and an MIC [3] of 16 µg/mL. For the same substance, the MIC [4] was 32 µg/mL, the MIC [5] was 32 µg/mL and the MIC (B. stabilis C6061 (IV) [6]) was 64 µg/mL. For the same substance, the MIC [7] was >256 µg/mL, the MIC [8] was 16 µg/mL and the MIC (P. aeruginosa PA01 [9]) was 16 µg/mL. The MIC [10] was 128 µg/mL, the MIC [11] was 16 µg/mL and the MIC [12] was 32 µg/mL. The MIC [13] was 16 µg/mL, the MIC (B. dolosa CEP0021 (VI) [14]) was >256 µg/mL and the MIC [15] was >512 µg/mL. For the same substance, the MIC [16] was 128 µg/mL, the MIC [17] was >256 µg/mL and the MIC [18] was 16 µg/mL. It also gave an MIC [19] of 50 µg/mL, an MIC [20] of 16 µg/mL and an MIC [21] of 16 µg/mL. For the same substance, the MIC [22] was 64 µg/mL, the MIC [23] was 32 µg/mL and the “Inhibition by 10 µg/mL 1018 (biofilm formation)” value (shortened to “Inhibition”) (P. aeruginosa PA14 [24]) was ~ 50% and 49%. The “Inhibition” value [25] was 37%, the “Inhibition” value [26] was 44% and the “Inhibition” value (B. stabilis C6061 (IV) [27]) was 53%. For the same substance, the “Inhibition” value [28] was 61%, the “Inhibition” value [29] was 37% and the “Inhibition” value (P. aeruginosa PA01 [30]) was ~ 50% and 51%. The “Inhibition” value [31] was 58%, the “Inhibition” value [32] was 33% and the “Inhibition” value (B. dolosa CEP0021 (VI) [33]) was 55%. The “Inhibition” value [34] was 75%, the “Inhibition” value [35] was 59% and the “Inhibition” value [36] was 52%. For the same substance, the “Inhibition” value [37] was 41%, the “Inhibition” value [38] was 49% and the “Inhibition” value [39] was 19%. The “Inhibition” value [40] was 62% and the “Inhibition” value [41] was 44%.
